These results are taken from US20080194546A1, “Pyrido-, Pyrazo- and Pyrimido-Pyrimidine Derivatives as mTOR Inhibitors” (KuDOS Pharmaceuticals Limited, priority 2005, published 2008).

The structures appear in SMILES notation.

The test addresses T1, mTOR (Homo sapiens, UniProt P42345).
T1 construct: mTOR protein was isolated from HeLa cell cytoplasmic extract by immunoprecipitation; endogenous in cells; host or cells: HeLa cell cytoplasmic extract (immunoprecipitate)
The experiment in a line: Biological Assay: mTOR enzyme activity, mTOR immunoprecipitated from HeLa cell cytoplasmic extract, recombinant PHAS-1 as substrate. The class given is biochemical. Conditions: Biological Assay, upper bounds; read-out: IC50 values against mTOR.
Text: For mTOR enzyme activity assays, mTOR protein was isolated from HeLa cell cytoplasmic extract by immunoprecipitation, and activity determined essentially as described previously using recombinant PHAS-1 as a substrate (ref. 21).
Turning to `COc1ccc(-c2ccc3c(N4CCOCC4)nc(N4CCCC[C@@H]4C)nc3n2)cc1` [Example 1u], the IC50 (in general, the midpoint of a concentration-inhibition curve) is below 1000 nM.
For the molecule `Cc1ccc(-c2ccc3c(N4CCOCC4)nc(N4C[C@@H](C)O[C@@H](C)C4)nc3n2)cc1` [Example 1d], the IC50 was below 100 nM.
With `C[C@@H]1CN(c2nc(N3CCOCC3)c3ccc(-c4cccc(CO)c4)nc3n2)C[C@H](C)O1` [Example 1q] the figure was below 100 nM; with `C[C@@H]1CN(c2nc(N3CCOCC3)c3ccc(Nc4ccc(Cl)cc4)nc3n2)C[C@H](C)O1` [Example 2k], below 1000 nM; with `COc1ccc(-c2ccc3c(N4CCOCC4)nc(N4C[C@@H](C)O[C@@H](C)C4)nc3n2)cc1OC` [Example 1ah], below 1000 nM.
Turning to `C[C@@H]1CN(c2nc(N3CCOCC3)c3ccc(-c4ccsc4)nc3n2)C[C@H](C)O1` [Example 1i], the IC50 is below 100 nM.
`C[C@@H]1CN(c2nc(N3CCOCC3)c3ccc(Nc4cccc5cnccc45)nc3n2)C[C@H](C)O1` [Example 2f]: the IC50 was below 10000 nM.
Then `Cc1ccc(Nc2ccc3c(N4CCOCC4)nc(N4C[C@@H](C)O[C@@H](C)C4)nc3n2)nc1` [Example 2bd], with below 1000 nM.
As for `COc1ccc(-c2ccc3c(N4CCOCC4)nc(N(CCO)CCO)nc3n2)cc1CO` [Example 1o], the 50% inhibitory concentration (IC50) was below 100 nM.
For the molecule `C[C@@H]1CN(c2nc(N3CCOCC3)c3ccc(-c4ccc5c(c4)OCCCO5)nc3n2)C[C@H](C)O1` [Example 1ba], the IC50 was below 10000 nM.
On to `COc1ccc(/C=C/c2ccc(Nc3ccc4c(N5CCOCC5)nc(N5C[C@@H](C)O[C@@H](C)C5)nc4n3)cc2)cc1` [Example 2p], for which the IC50 is below 1000 nM.
Regarding `C[C@@H]1CN(c2nc(N3CCOCC3)c3ccc(NS(C)(=O)=O)nc3n2)C[C@H](C)O1` [Example 6], the IC50 is below 10000 nM.
With `Cc1ccc(Nc2ccc3c(N4CCOCC4)nc(N4C[C@@H](C)O[C@@H](C)C4)nc3n2)cc1` [Example 2j] the figure was below 1000 nM.
For `C[C@@H]1CN(c2nc(N3CCOCC3)c3ccc(Nc4nc5cncnc5[nH]4)nc3n2)C[C@H](C)O1` [Example 2au], the IC50 is below 10000 nM.
With `C[C@@H]1CN(c2nc(N3CCOCC3)c3ccc(Nc4cnccn4)nc3n2)C[C@H](C)O1` [Example 2bc] the figure was below 10000 nM.
For the molecule `COC(=O)c1cccc(-c2ccc3c(N4CCOCC4)nc(N4C[C@@H](C)O[C@@H](C)C4)nc3n2)c1` [Example 1am], the IC50 was below 1000 nM.
With `CC1CCCCN1c1nc(N2CCOCC2)c2ccc(-c3ccccc3)nc2n1` (stereo not drawn) [1 h], the IC50 is below 10000 nM.
As for `C[C@@H]1CN(c2nc(N3CCOCC3)c3ccc(Nc4nccc5cccnc45)nc3n2)C[C@H](C)O1` [Example 2av], the IC50 is below 1000 nM.
Then `Cc1cccc(-c2ccc3c(N4CCOCC4)nc(N4C[C@@H](C)O[C@@H](C)C4)nc3n2)c1` [Example 1aj], with below 1000 nM.
Turning to `COc1ccc(-c2ccc3c(N4CCOCC4)nc(N4C[C@@H](C)O[C@@H](C)C4)nc3n2)cc1CNCc1cccs1` [Example 8j], the IC50 is below 100 nM.
Then `C[C@@H]1CN(c2nc(N3CCOCC3)c3ccc(-c4ccc(C(=O)O)s4)nc3n2)C[C@H](C)O1` [Example 1ar], with below 1000 nM; and `CC(=O)Nc1cccc(-c2ccc3c(N4CCOCC4)nc(N4C[C@@H](C)O[C@@H](C)C4)nc3n2)c1` [Example 1ab], with below 1000 nM; and `C[C@@H]1CN(c2nc(N3CCOCC3)c3ccc(Nc4ccc5cccc(O)c5n4)nc3n2)C[C@H](C)O1` [Example 2ay], with below 10000 nM.
For the molecule `Cc1cscc1-c1ccc2c(N3CCOCC3)nc(N3C[C@@H](C)O[C@@H](C)C3)nc2n1` [Example 1v], the IC50 is below 1000 nM.
With `C[C@@H]1CN(c2nc(N3CCOCC3)c3ccc(-c4cnn(C)c4)nc3n2)C[C@H](C)O1` [Example 1ad] the figure was below 1000 nM; with `C[C@@H]1CN(c2nc(N3CCOCC3)c3ccc(Nc4ccc(Cl)cc4O)nc3n2)C[C@H](C)O1` [Example 2aa], below 1000 nM; with `Cc1cnccc1Nc1ccc2c(N3CCOCC3)nc(N3C[C@@H](C)O[C@@H](C)C3)nc2n1` [Example 2t], below 1000 nM.
With `CC1CCC(Nc2ccc3c(N4CCOCC4)nc(N4C[C@@H](C)O[C@@H](C)C4)nc3n2)CC1` (stereo partly drawn) [Example 2al] the figure was below 10000 nM; with `C[C@@H]1CN(c2nc(N3CCOCC3)c3ccc(-c4cccc(C(N)=O)c4)nc3n2)C[C@H](C)O1` [Example 1ai], below 1000 nM.
In the case of `C[C@@H]1CN(c2nc(N3CCOCC3)c3ccc(-c4ccncc4)nc3n2)C[C@H](C)O1` [Example 1ac], the IC50 is below 1000 nM.
`C[C@@H]1CN(c2nc(N3CCOCC3)c3ccc(NC4CCC4)nc3n2)C[C@H](C)O1` [Example 2ai]: the IC50 was below 10000 nM.
For `C[C@@H]1CN(c2nc(N3CCOCC3)c3ccc(-c4ccc(OC(F)(F)F)cc4)nc3n2)C[C@H](C)O1` [Example 1ao], the IC50 is below 1000 nM.
Then `C[C@@H]1CN(c2nc(N3CCOCC3)c3ccc(Nc4nc(-c5ccccc5Cl)cs4)nc3n2)C[C@H](C)O1` [Example 2s], with below 10000 nM; and `Cc1cc([N+](=O)[O-])cc(Cl)c1Nc1ccc2c(N3CCOCC3)nc(N3C[C@@H](C)O[C@@H](C)C3)nc2n1` [Example 2l], with below 10000 nM; and `COc1ccc(-c2ccc3c(N4CCOCC4)nc(N4C[C@@H](C)O[C@@H](C)C4)nc3n2)cc1` [Example 1e], with below 100 nM.
Regarding `Cc1cccnc1Nc1ccc2c(N3CCOCC3)nc(N3C[C@@H](C)O[C@@H](C)C3)nc2n1` [Example 2bg], the concentration for half-maximal inhibition (IC50) is below 10000 nM.
Take `Cc1nnc(Nc2ccc3c(N4CCOCC4)nc(N4C[C@@H](C)O[C@@H](C)C4)nc3n2)o1` [Example 2ao]: the IC50 was below 10000 nM.
In the case of `C[C@@H]1CN(c2nc(N3CCOCC3)c3ccc(NC4CCCC4)nc3n2)C[C@H](C)O1` [Example 2ag], the IC50 is below 10000 nM.
As to `COC(=O)c1cc(Nc2ccc3c(N4CCOCC4)nc(N4C[C@@H](C)O[C@@H](C)C4)nc3n2)cn1C` [Example 2as], the IC50 is below 1000 nM.
For the molecule `C[C@@H]1CN(c2nc(N3CCOCC3)c3ccc(-c4cncnc4)nc3n2)C[C@H](C)O1` [Example 1az], the half-maximal inhibitory concentration (IC50) is below 10000 nM.
With `C[C@@H]1CN(c2nc(N3CCOCC3)c3ccc(Nc4ccccc4)nc3n2)C[C@H](C)O1` [Example 2a] the figure was below 1000 nM.
With `C[C@@H]1CN(c2nc(N3CCOCC3)c3ccc(Nc4cccnc4)nc3n2)C[C@H](C)O1` [Example 2az] the figure was below 1000 nM; with `C[C@@H]1CN(c2nc(N3CCOCC3)c3ccc(NC(=O)c4nc[nH]c4N)nc3n2)C[C@H](C)O1` [Example 5g], below 10000 nM.
Then `C[C@@H]1CN(c2nc(N3CCOCC3)c3ccc(NC(=O)CSc4ccccc4)nc3n2)C[C@H](C)O1` [Example 5d], with below 10000 nM; and `Cc1ccc(-c2ccc3c(N4CCOCC4)nc(N4C[C@@H](C)O[C@@H](C)C4)nc3n2)s1` [Example 1t], with below 1000 nM; and `CSc1nc2ccc(Nc3ccc4c(N5CCOCC5)nc(N5C[C@@H](C)O[C@@H](C)C5)nc4n3)cc2s1` [Example 2ad], with below 1000 nM.
Turning to `C[C@@H]1CN(c2nc(N3CCOCC3)c3ccc(Nn4cnnc4)nc3n2)C[C@H](C)O1` [Example 2r], the IC50 was below 10000 nM.
For `COC(=O)c1ccc(Nc2ccc3c(N4CCOCC4)nc(N4C[C@@H](C)O[C@@H](C)C4)nc3n2)cc1` [Example 2g], the IC50 is below 1000 nM.
As to `C[C@@H]1CN(c2nc(N3CCOCC3)c3ccc(NC(=O)C4CCCC4)nc3n2)C[C@H](C)O1` [Example 5b], the IC50 was below 10000 nM.
Take `C[C@@H]1CN(c2nc(N3CCOCC3)c3ccc(-c4cccc5cccnc45)nc3n2)C[C@H](C)O1` [Example 1ay]: the IC50 is below 10000 nM.
In the case of `C[C@@H]1CN(c2nc(N3CCOCC3)c3ccc(-c4ccc(C#N)cc4)nc3n2)C[C@H](C)O1` [Example 1n], the IC50 is below 100 nM.
With `CC(=O)c1ccc(-c2ccc3c(N4CCOCC4)nc(N4C[C@@H](C)O[C@@H](C)C4)nc3n2)cc1` [Example 1aq] the figure was below 1000 nM.
Turning to `C[C@@H]1CN(c2nc(N3CCOCC3)c3ccc(NCC4CC4)nc3n2)C[C@H](C)O1` [Example 2aj], the IC50 was below 10000 nM.
On to `Cc1cccc(Nc2ccc3c(N4CCOCC4)nc(N4C[C@@H](C)O[C@@H](C)C4)nc3n2)n1` [Example 2be], for which the IC50 is below 1000 nM.
As to `C[C@@H]1CN(c2nc(N3CCOCC3)c3ccc(-c4ccc5[nH]ccc5c4)nc3n2)C[C@H](C)O1` [Example 1x], the IC50 was below 1000 nM.
For the molecule `C[C@@H]1CN(c2nc(N3CCOCC3)c3ccc(Nc4nccc(-c5ccco5)n4)nc3n2)C[C@H](C)O1` [Example 2ax], the IC50 is below 1000 nM.
`CCNC(=O)Nc1ccc2c(N3CCOCC3)nc(N3C[C@@H](C)O[C@@H](C)C3)nc2n1` [Example 4a]: the 50% inhibitory concentration (IC50) was below 10000 nM.
`C[C@@H]1CN(c2nc(N3CCOCC3)c3ccc(Nc4ccc(-n5cccc5)cc4)nc3n2)C[C@H](C)O1` [Example 2q]: the 50% inhibitory concentration (IC50) was below 1000 nM.
`C[C@@H]1CN(c2nc(N3CCOCC3)c3ccc(-c4ccc5c(c4)OCO5)nc3n2)C[C@H](C)O1` [Example 1ak]: the 50% inhibitory concentration (IC50) is below 10000 nM.
On to `COCCN(CCOC)c1nc(N2CCOCC2)c2ccc(-c3ccc(OC)c(CO)c3)nc2n1` [Example 1af], for which the IC50 was below 1000 nM.
Regarding `C[C@@H]1CN(c2nc(N3CCOCC3)c3ccc(-c4ccc5c(c4)OCCO5)nc3n2)C[C@H](C)O1` [Example 1at], the IC50 was below 1000 nM.
On to `C[C@H]1CCCCN1c1nc(N2CCOCC2)c2ccc(Nc3ccccc3)nc2n1` [Example 2i], for which the IC50 was below 1000 nM.
For the molecule `Cc1ccc(-n2nc(C)cc2Nc2ccc3c(N4CCOCC4)nc(N4C[C@@H](C)O[C@@H](C)C4)nc3n2)cc1` [Example 2y], the IC50 is below 10000 nM.
On to `CC(=O)c1ccc(-c2ccc3c(N4CCOCC4)nc(N4C[C@@H](C)O[C@@H](C)C4)nc3n2)s1` [Example 1ag], for which the IC50 is below 1000 nM.
`C[C@@H]1CN(c2nc(N3CCOCC3)c3ccc(NC4CCN(C)CC4)nc3n2)C[C@H](C)O1` [Example 2w]: the IC50 was below 10000 nM.
Regarding `C=CCNc1ccc2c(N3CCOCC3)nc(N3C[C@@H](C)O[C@@H](C)C3)nc2n1` [Example 2am], the IC50 is below 10000 nM.
